Measured values reported in publication PMC11245370, “3-Position Biaryl Endochin-like Quinolones with Enhanced Antimalarial Performance” (ACS Infectious Diseases, 2024).
Where “and” joins values, the source holds several entries; their conditions need not be identical. Equal values may be shown once.

Tests used:
[1] = system: P. yoelii blood-stage infection; conditions: mice; for blood stage in vivo efficacy, 4 day Peters test results, NRD (nonrecrudescence dose): oral gavage days 1-4, followed to day 30
Description: (§1) On day 5, a drop of blood was taken from the tail, and a blood smear was prepared, fixed with methanol, and stained with Giemsa. The operator then examined the stained smear microscopically to determine percent parasitemia. […] In this model, animals were inoculated exactly as for the 4 day test on day 0; however, drug was administered only on day 1, whereas smears were made on day 5 and again weekly thereafter for animals that remained aparasitemic. Animals that remained aparasitemic on day 30 were scored as cures.
The P. yoelii 4 day test monitors suppression of patent infection in female CF1 mice. The test began with the inoculation (iv) of parasitized erythrocytes (3.5 × 10^4P. yoelli) (from a donor animal) on the first day of the experiment (D0). […] Initially, the 3-biaryl-ELQs were tested at doses of 0.0025, 0.005, 0.01, 0.03, 0.1, 0.3, 1.0, and 10 mg/kg/day, including a vehicle-only (PEG400) control. After completion of drug treatment, a blood sample was collected (by pricking the tail vein) for determination of parasite burden beginning on the day after the final dose (D5). Percent parasitemia was assessed by direct microscopic analysis of Giemsa-stained blood smears. […] Animals with observable parasitemia following the experiment were euthanized; animals cleared of parasites from the bloodstream were observed daily with assessment of parasitemia performed weekly until day 30, at which point the animals were scored as cured of infection. […] Nonlinear regression analysis was used for objective determination of ED50’s and ED90’s from the accumulated data as well as the nonrecrudescence dose (NRD). The 4 day test protocol was reviewed and approved by the local IACUC board at the Portland VA Medical Center. Experiments were performed with four mice per group to ensure statistical accuracy.

[2] = system: P. yoelii blood-stage infection; test: Single-dose cure of blood-stage murine malaria; type: in vivo, Plasmodium yoelii; conditions: for blood stage in vivo efficacy, single dose cure: lowest single oral dose curing all four mice, day 30
Description: as §1
The effectiveness of selected 3-biaryl ELQs and prodrugs was assessed vs the blood-stage infection for single-dose cures. Mice were infected iv with 3.5 × 10^4P. yoelii infected RBCs as described for the 4 day test above. Drug administration occurred on the day after inoculation (day 1). Test agents were dissolved in PEG-400 and administered ig once. On the fifth day, blood films were prepared, and % parasitemia was assessed. Animals remaining parasite-free for 30 days after drug administration were considered cured. The initial dosing range was 0.25, 0.5, 1, 3, and 10 mg/kg, including a control. Experiments were performed with four mice per group to ensure statistical accuracy. The reported parameter for these studies is the lowest single dose that provides a cure to all four animals in the group.

[3] = system: P. yoelii sporozoites (liver stage); test: Causal prophylaxis, sporozoite challenge in mice; conditions: 1.0 mg/kg single oral dose 1 h after 10,000 P. yoelii sporozoites iv; followed 30 days
Description: For this study, mice were inoculated with 10,000 P. yoelii sporozoites via tail vein injections, and drug was administered by gavage an hour later and only once. We monitored for the presence of blood-stage parasites as a measure of liver-stage infection.
Mice were inoculated with 10,000 sporozoites via tail vein injection of CF1 mice treated with or without drug (dissolved in PEG400) 1 h after inoculation. […] Additional monitoring for blood-stage infection was continued for a 30 day period to confirm true causal prophylaxis against P. yoelii challenge. […] Testing involved the use of four animals per group for statistical accuracy. […] A minimum of 5000 red blood cells were examined to establish blood-stage infection. Blood smears were fixed with methanol, stained with Giemsa, and viewed under oil immersion at 1000× magnification under standard light microscopy.

[4] = system: P. falciparum multidrug-resistant Dd2 strain; test: microbe, parasite or virus in culture; type: cell-based; conditions: Plasmodium falciparum, DD2, 72 h, read-out: P. falciparum IC50 values, Dd2
Description: (§2) All of this information is stored in a database with information relating to chemical structure, physical chemical properties, cross resistance patterns, mammalian cell cytotoxicity, enzyme inhibitor profiles, and synthesis details. Pharmacological data and in vivo efficacy data are also stored in the database for molecules of particular interest. […] We synthesized the compound in an initial batch size of about 800 mg as described above. […] Fluorescence readings were captured with a fluorescence plate reader and processed by nonlinear regression analysis using the GraphPad Prism software to provide IC50 values for each determination. Stock solutions were freshly prepared daily in DMSO in glass vials.
(§3) Laboratory strains of P. falciparum were cultured in human erythrocytes by standard methods. The parasites were grown in culture medium with fresh human erythrocytes maintained at 2% hematocrit at 37 °C in low-oxygen conditions (5% O2, 5% CO2, 90% N2). […] Cultures were maintained at less than 10% parasitemia by transfer of infected cells to fresh erythrocytes and culture medium every 3 or 4 days.
(§4) SYBR green I assay. In vitro antiplasmodial activity was assessed using a published SYBR Green I fluorescence-based method.[20] The drugs were added to 96-well plates using twofold serial dilutions in complete medium. […] Asynchronous P. falciparum parasites were diluted with uninfected erythrocytes and added to the wells to give a final culture volume of 100 μL at 2% hematocrit and 0.2% parasitemia. […] The parasites were then lysed by adding 100 μL of SYBR green I lysis buffer containing 0.2 μL/ml SYBR green I dye (10,000×) in 20 mM Tris (pH 7.5), 5 mM EDTA, 0.008% (wt/vol) saponin, and 0.08% (v/v) Triton X-100. The plates were incubated at room temperature for an hour in the dark. […] If the IC50 value fell outside of the initially tested range, then the range was adjusted up or down, and the assay was repeated twice.

[5] = system: P. falciparum drug-sensitive D6 strain; test: SYBR Green I antiplasmodial assay, D6 strain; type: cell-based; conditions: Plasmodium falciparum, D6, 72 h, read-out: P. falciparum IC50 values, D6
Description: as §2, §3, §4

[6] = system: P. falciparum ELQ-300-resistant D1 clone; test: microbe, parasite or virus in culture; type: cell-based; conditions: Plasmodium falciparum, 72 h, read-out: P. falciparum IC50 values, D1
[7] = HepG2 cytotoxicity / mitochondrial toxicity (TiterGlo ATP, galactose medium); conditions: human, HepG2 cells
Description: HepG2 was routinely cultured in DMEM containing 10% fetal calf serum and 100 IU/mL penicillin and 100 μg/mL streptomycin (complete medium). For studies to investigate the potential for mitochondrial toxicity by selected 3-biaryl-ELQs, the medium contained galactose rather than glucose to force the cells to produce ATP through oxidative phosphorylation, which in turn makes them sensitive to mitochondrial toxicants.[36] […] After this period, the culture medium was removed, and the cells were shifted to galactose-containing medium with test drugs at concentrations ranging from 0 to 10 μM. Drug dilutions were prepared from DMSO stocks into galactose-containing medium. […] After incubation, the contents of each well were removed, and 25 μL of TiterGlo II reagent mix containing luciferase, detergent, and luciferin was added to each well along with 25 μL of culture medium. […] At this point, the plates were read on a luminometer (SpectraMax iD3 iD5Multi-Mode Microplate Reader), and the data were processed to yield the percent decrease in ATP production relative to no-drug control values. These values reflect the potential damage caused by mitochondrial toxicants due to reduced intracellular ATP levels caused by interference with the human mitochondrial electron transport chain. Assays were set up in triplicate.

[8] = system: P. falciparum atovaquone-resistant clinical isolate Tm90-C2B; test: SYBR Green I antiplasmodial assay, Tm90-C2B; type: cell-based; conditions: Plasmodium falciparum, TM90, 72 h, read-out: P. falciparum IC50 values, Tm90-C2B
Description: as §2, §3, §4

[9] = Metabolic stability in liver microsomes, rat; type: in vitro ADME
[10] = Metabolic stability in liver microsomes, mouse; type: in vitro ADME; conditions: pooled mouse liver microsomes, pH 7.4
Description: (§5) […]. Samples were taken over the interval of 45 min and analyzed by LC–MS/MS for the presence of test compound. Ketanserin served as an internal standard for the metabolic rate of a drug with known intermediate stability. […].
(§6) The drug was incubated at 37 °C and 1 μM concentration in murine liver microsomes (Corning) for 45 min at a protein concentration of 0.5 mg/mL in potassium phosphate buffer at pH 7.4 containing 1.0 mM EDTA. The metabolic reaction was initiated by addition of NADPH and quenched with ice-cold acetonitrile at 0, 5, 15, 25, and 45 min.

[11] = Metabolic stability in liver microsomes, human; type: in vitro ADME
Description: as §5, §6

[12] = oral gavage days 1-4, parasitemia day 5, prodrugs dosed on molar equivalency to parent
[13] = pH 7.4, predicted intrinsic clearance

Row | Structure (SMILES) | IC50 [4] [nM] | IC50 [5] [nM] | IC50 [6] [nM] | IC50 at 24 h [7] [nM] | IC50 [8] [nM] | also measured
1 | CCN(CC)CCCC(C)Nc1ccnc2cc(Cl)ccc12 (centres unmarked) [CQ] | – | – | – | – | – | blood stage in vivo efficacy, 4 day Peters test results, NRD (nonrecrudescence dose) [1]: >64 mg/kg/day; blood stage in vivo efficacy, single dose cure [2]: >64 mg/kg/day
2 | CCOC(=O)OCOc1c(-c2ccc(Oc3ccc(OC(F)(F)F)cc3)cc2)c(C)nc2cc(OC)c(Cl)cc12 [ELQ-331] | – | – | – | – | – | blood stage in vivo efficacy, 4 day Peters test results, NRD (nonrecrudescence dose) [1]: 1.0 mg/kg/day; blood stage in vivo efficacy, 4 day Peters test results, ED50 [1, 12]: 0.02 mg/kg/day; blood stage in vivo efficacy, 4 day Peters test results, ED90 [1, 12]: 0.05 mg/kg/day; blood stage in vivo efficacy, single dose cure [2]: 3 mg/kg/day; lowest fully protective single dose cure ([2]; single oral dose day 1, aparasitemic day 30, four mice, parent-drug equivalent): 3 mg/kg; liver stage in vivo, # mice protected/total [3]: completely protective and 4/4
3 | COc1cc2[nH]c(C)c(-c3ccc(-c4cccc(OC(F)(F)F)c4)cc3)c(=O)c2cc1Cl [ELQ-604, 6-Chloro-7-methoxy-2-methyl-3-(3′-(trifluoromethoxy)-[1,1′-biphenyl]-4-yl)quinolin-4(1H)-one] | 0.5 | 0.6 | > 250 | > 10000 | 0.5 | –
4 | COc1cc2[nH]c(C)c(-c3ccc(-c4ccc(Cl)cc4)cc3)c(=O)c2cc1Cl [ELQ-637, 6-Chloro-3-(4′-chloro-[1,1′-biphenyl]-4-yl)-7-methoxy-2-methylquinolin-4(1H)-one] | 7.1 | 3.4 | > 250 | > 10000 | 3 | –
5 | COc1cc2[nH]c(C)c(-c3ccc(-c4cccc(C(F)(F)F)c4)cc3)c(=O)c2cc1Cl [ELQ-646, 6-Chloro-7-methoxy-2-methyl-3-(3′-(trifluoromethyl)-[1,1′-biphenyl]-4-yl)quinolin-4(1H)-one] | 2.7 | 1.1 | > 250 | > 10000 | 1 | –
6 | COc1cc2[nH]c(C)c(-c3ccc(-c4ccc(C(F)(F)F)cc4)cc3)c(=O)c2cc1Cl [ELQ-647, 6-Chloro-7-methoxy-2-methyl-3-(4′-(trifluoromethyl)-[1,1′-biphenyl]-4-yl)quinolin-4(1H)-one] | 7.8 | 3.5 | > 250 | > 10000 | 3.5 | –
7 | COc1cc2[nH]c(C)c(-c3ccc(-c4ccc(OC(F)(F)F)cc4)cc3)c(=O)c2cc1F [ELQ-650, 6-Fluoro-7-methoxy-2-methyl-3-(4′-(trifluoromethoxy)-[1,1′-biphenyl]-4-yl)quinolin-4(1H)-one] | 1.1 | 0.8 | 14 | > 10000 | 0.4 | –
8 | COc1cc2[nH]c(C)c(-c3ccc(-c4ccc(C(F)F)cc4)cc3)c(=O)c2cc1Cl [ELQ-659, 6-Chloro-3-(4′-(difluoromethyl)-[1,1′-biphenyl]-4-yl)-7-methoxy-2-methylquinolin-4(1H)-one] | 1.8 | 1.8 | > 250 | > 10000 | 0.57 | –
9 | O=C(c1ccc(F)cc1)C1CCN(CCn2c(=O)[nH]c3ccccc3c2=O)CC1 [ketanserin] | – | – | – | – | – | CLint scaled at 1 μM [9, 13]: 10.3 L/h/kg; half-life at 1 μM ([9]; rat, pH 7.4): 14.4 min; half-life at 1 μM ([10]; mouse liver microsomes 0.5 mg/mL, NADPH, 37 °C, 45 min, 1 μM): 19.1 min; CLint scaled at 1 μM ([10]; mouse liver microsomes, predicted intrinsic clearance): 17.1 L/h/kg; half-life at 1 μM ([11]; human, pH 7.4): 27.3 min; CLint scaled at 1 μM [11, 13]: 3.82 L/h/kg
